Data on 9 compounds can be found in patent US10501518B2 (priority 2013, dated 2019).

Starred links: 1 amine or outer side, 2 acyl side, 3 side chain; linkers in the order of their positions; H or OH if unused. Non-standard residues stand in square brackets, D forms with d. Residues, ends and D or L forms follow the SMILES beside them. *: point of attachment. NH(1S,2S-2-CONH2-cPent) = NC(=O)[C@H]1CCC[C@@H]1N*; X12 = O=C([C@H]1CCC[C@@H]1N[*:1])[*:2]; X13 = O=C([C@H]1CNC[C@@H]1N[*:1])[*:2]; ACPC(1S,2S) = N[C@H]1CCC[C@@H]1C(=O)*; hArg = N=C(N)NCCCC[C@H](N)C(=O)O; β3hE = N[C@@H](CCC(=O)O)CC(=O)O; β3hD = NC(CC(=O)O)CC(=O)O; Aib = CC(C)(N)C(=O)O

In assay [1] the target is T1, WT human PTHR-1 (Homo sapiens, UniProt Q03431).
T1 construct: bioactivity of the resulting compound in full-length hPTHR-1 and a truncated version; expressed in transfected cells
T1 sequence (Q03431 27-593): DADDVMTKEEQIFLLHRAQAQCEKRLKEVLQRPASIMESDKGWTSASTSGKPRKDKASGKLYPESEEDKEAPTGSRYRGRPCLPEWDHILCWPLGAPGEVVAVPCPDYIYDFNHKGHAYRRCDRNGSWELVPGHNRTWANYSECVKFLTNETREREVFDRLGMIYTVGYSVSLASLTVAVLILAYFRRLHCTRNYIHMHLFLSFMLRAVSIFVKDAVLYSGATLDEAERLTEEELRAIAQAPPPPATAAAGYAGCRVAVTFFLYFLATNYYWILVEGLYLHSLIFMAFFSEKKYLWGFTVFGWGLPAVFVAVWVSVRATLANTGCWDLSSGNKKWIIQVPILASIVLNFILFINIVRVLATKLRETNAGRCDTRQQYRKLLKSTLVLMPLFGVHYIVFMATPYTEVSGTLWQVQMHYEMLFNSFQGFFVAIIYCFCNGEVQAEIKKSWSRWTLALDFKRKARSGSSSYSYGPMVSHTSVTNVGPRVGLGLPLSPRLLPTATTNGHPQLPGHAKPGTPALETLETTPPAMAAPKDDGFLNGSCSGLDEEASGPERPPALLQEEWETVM
As to the kind of experiment: cAMP GloSensor dose-response in GP-2.3 cells expressing human PTHR-1. The class given is cell-based. The settings on record: for cAMP (hPTHR-1) Max: luminescence counts per second relative to PTH(1-34); for cAMP (hPTHR-1) Max / Max: 12-16 minutes after ligand addition; for Max: Table 6, mean ± SEM; for agonist activity at hPTHR-1 (cAMP response), in words: maximum cAMP response compared with PTH(1-34). The method, then: FIGS. 8A, 8B, and 8C constitute a series of graphs depicting cAMP responses in GP-2.3 cells expressing wild-type human parathyroid hormone receptor 1 (PTHR-1-WT). […] Data are means (±SEM) of n>4 experiments, each performed in duplicate.
(§1) For cAMP dose-response assays, monolayers of confluent HEK 293 cells were pre-incubated with buffer containing d-luciferin (0.5 mM) in 96 well plates at room temperature until a stable baseline level of luminescence was established (30 min). Varying concentrations of agonist were then added, and the time course of luminescence response was recorded using a Perkin Elmer plate reader following α/β-peptide addition.

In assay [2] the target is T2, WT rat PTHR-1 (Rattus norvegicus, UniProt P25961).
T2 construct: expressed in transfected cells
T2 sequence (P25961 27-591): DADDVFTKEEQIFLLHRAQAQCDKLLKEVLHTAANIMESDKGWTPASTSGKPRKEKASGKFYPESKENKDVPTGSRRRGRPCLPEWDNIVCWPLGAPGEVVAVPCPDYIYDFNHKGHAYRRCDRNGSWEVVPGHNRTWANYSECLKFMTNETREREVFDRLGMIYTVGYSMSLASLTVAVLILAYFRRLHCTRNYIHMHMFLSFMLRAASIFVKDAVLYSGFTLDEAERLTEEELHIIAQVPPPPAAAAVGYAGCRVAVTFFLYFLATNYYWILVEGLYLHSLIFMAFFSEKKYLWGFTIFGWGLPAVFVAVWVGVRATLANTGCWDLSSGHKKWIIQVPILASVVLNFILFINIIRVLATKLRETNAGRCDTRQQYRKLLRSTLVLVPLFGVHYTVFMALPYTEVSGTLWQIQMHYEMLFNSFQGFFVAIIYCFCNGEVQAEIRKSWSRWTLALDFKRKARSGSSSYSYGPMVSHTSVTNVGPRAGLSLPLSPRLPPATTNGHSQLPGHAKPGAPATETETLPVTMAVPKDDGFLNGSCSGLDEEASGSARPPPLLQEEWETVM
As to the kind of experiment: cAMP GloSensor dose-response in GR-35 cells expressing rat PTHR-1. The class given is cell-based. The settings on record: Table 7; GR-35 cells, 12-16 minutes after ligand addition; mean ± SEM. On the procedure: FIGS. 9A, 9B, and 9C constitute a series of graphs depicting cAMP responses in GR-35 cells expressing rat PTHR-1-WT. […] Data are means (±SEM) of n>4 experiments, each performed in duplicate.
as §1

Assay [3] deals with T3, R^0 form of human PTHR-1 (Homo sapiens, UniProt Q03431).
T3 construct: expressed in transfected cells; host or cells: COS-7
T3 sequence (Q03431 27-593): T1 sequence (Q03431 27-593)
As to the kind of experiment: Radio-ligand competition binding to R^0 form of human PTHR-1 (COS-7 membranes, 125I-PTH(1-34) tracer, GTPγS). The source says: Data are means (±SEM) of n≥4 experiments, each performed in duplicate.

The target of assay [4] is T4, PTHR (Homo sapiens, UniProt Q03431).
T4 construct: expressed in transfected cells
T4 sequence (Q03431 27-593): T1 sequence (Q03431 27-593)
Kind of assay: cAMP induction potency, N-terminal modifications and cyclic constraints (Tables 9, 10, 13). The class given is cell-based.

Take `CC[C@H](C)[C@H](NC(=O)[C@H](CCC(=O)O)NC(=O)[C@H](CO)NC(=O)[C@@H](NC(=O)[C@@H](N)CO)C(C)C)C(=O)N[C@@H](CCC(N)=O)C(=O)N[C@@H](CC(C)C)C(=O)N[C@@H](CCSC)C(=O)N[C@@H](Cc1c[nH]cn1)C(=O)N[C@@H](CC(N)=O)C(=O)N[C@@H](CC(C)C)C(=O)NCC(=O)N[C@@H](CCCCN)C(=O)N[C@@H](Cc1c[nH]cn1)C(=O)N[C@@H](CC(C)C)C(=O)N[C@@H](CC(N)=O)C(=O)N[C@@H](CO)C(=O)N[C@@H](CCSC)C(=O)N[C@@H](CCC(=O)O)C(=O)N[C@@H](CCCNC(=N)N)C(=O)N[C@H](C(=O)N[C@@H](CCC(=O)O)C(=O)N[C@@H](Cc1c[nH]c2ccccc12)C(=O)N[C@H](CC(=O)N[C@@H](CCCNC(=N)N)C(=O)N[C@@H](CCCCN)C(=O)N[C@@H](CCCCN)C(=O)N[C@H](CC(=O)N[C@@H](CCC(N)=O)C(=O)N[C@@H](CC(=O)O)C(=O)N[C@H](C(=O)N[C@@H](CCC(N)=O)CC(=O)N[C@@H](CC(N)=O)C(=O)N[C@@H](Cc1ccccc1)C(N)=O)C(C)C)CC(C)C)CC(C)C)C(C)C` [B3]: the EC50 in assay [1] (Table 1, GP-2.3 cells, read-out: cAMP (hPTHR-1) EC50) was 0.11 nM. The “cAMP (hPTHR-1) Max” value in assay [1] (Table 1) was found to be 1.08. Also, the Max in assay [1] (GP-2.3 cells) is on record as 234 ± 16 luminescence counts per second × 10^−3; in assay [2], 69 ± 78 luminescence counts per second × 10−3. Further, the “agonist activity at hPTHR-1 (cAMP response), in words” value in assay [1] is given as “full agonists of hPTHR-1”. Also, the IC50 in assay [3] (Table 1, COS-7 membranes, 125I-PTH(1-34) tracer, GTPγS, read-out: R^0 IC50, nM, Binding (hPTHR-1)) was 80 nM.

With `CC[C@H](C)[C@H](NC(=O)[C@H](CCC(=O)O)NC(=O)[C@H](CO)NC(=O)[C@@H](NC(=O)[C@@H](N)CO)C(C)C)C(=O)N[C@@H](CCC(N)=O)C(=O)N[C@@H](CC(C)C)C(=O)N[C@@H](CCSC)C(=O)N[C@@H](Cc1c[nH]cn1)C(=O)N[C@@H](CC(N)=O)C(=O)N[C@@H](CC(C)C)C(=O)NCC(=O)N[C@@H](CCCCN)C(=O)N[C@@H](Cc1c[nH]cn1)C(=O)N[C@@H](CC(C)C)C(=O)N[C@@H](CC(N)=O)C(=O)N[C@@H](CO)C(=O)N[C@@H](CCSC)C(=O)N[C@@H](CCC(=O)O)C(=O)N[C@@H](CCCNC(=N)N)C(=O)N[C@H](C(=O)N[C@@H](CCC(=O)O)C(=O)N[C@@H](Cc1c[nH]c2ccccc12)C(=O)N[C@@H](CC(C)C)C(=O)N[C@@H](CCCNC(=N)N)C(=O)N[C@@H](CCCCN)CC(=O)N[C@@H](CCCCN)C(=O)N[C@@H](CC(C)C)C(=O)N[C@@H](CCC(N)=O)C(=O)N[C@@H](CC(=O)O)CC(=O)N[C@H](C(=O)N[C@@H](Cc1c[nH]cn1)C(=O)N[C@@H](CC(N)=O)C(=O)N[C@H](CC(N)=O)Cc1ccccc1)C(C)C)C(C)C` [D3], the “cAMP (hPTHR-1) Max” value in assay [1] (Table 1) is recorded as 1.04. In addition, the Max in assay [1] (GP-2.3 cells) was 226 ± 15 luminescence counts per second × 10^−3; in assay [2] it was 65 ± 62 luminescence counts per second × 10−3. For the same compound, in assay [1], the “agonist activity at hPTHR-1 (cAMP response), in words” value was “full agonists of hPTHR-1”. The “affinity for the R^0 state of hPTHR-1, in words” value in assay [3] (compared with PTH(1-34)) was “matches PTH(1-34)”.

Regarding `CSCC[C@H](NC(=O)[C@H]1CCC[C@@H]1NC(=O)[C@H](CCC(N)=O)NC(=O)[C@H]1CCC[C@@H]1NC(=O)[C@H](CCC(=O)O)NC(=O)C(C)(C)NC(=O)[C@@H](NC(=O)[C@H]1CCC[C@@H]1N)C(C)C)C(=O)N[C@@H](Cc1c[nH]cn1)C(=O)N[C@@H](CCC(N)=O)C(=O)N[C@@H](CCCCNC(=N)N)C(=O)N[C@@H](C)C(=O)N[C@@H](CCCCN)C(=O)N[C@H]1CCC[C@@H]1C(=O)N[C@@H](CC(C)C)C(=O)N[C@@H](CC(N)=O)C(=O)N[C@@H](CO)C(=O)N[C@H]1CCC[C@@H]1C(=O)N[C@@H](CCCNC(=N)N)C(=O)N[C@@H](CCCNC(=N)N)C(=O)N[C@H](C(=O)N[C@@H](CCC(=O)O)CC(=O)N[C@@H](Cc1c[nH]c2ccccc12)C(=O)N[C@@H](CC(C)C)C(=O)N[C@@H](CCCNC(=N)N)C(=O)N[C@H]1CNC[C@@H]1C(=O)N[C@@H](CCCCN)C(=O)N[C@@H](CC(C)C)C(=O)N[C@@H](CCC(N)=O)C(=O)N[C@@H](CC(=O)O)CC(=O)N[C@H](C(=O)N[C@@H](Cc1c[nH]cn1)C(=O)N[C@@H](CC(N)=O)C(=O)N[C@H]1CCC[C@@H]1C(N)=O)C(C)C)C(C)C` [M-X1,5,7-CycD6, HXVUEXQXMHQ^hRAKXLNSXRRVEWLRZKLQDVHNX-NH2] ({ACPC(1S,2S)}-V[Aib]E[X12]Q[X12]MHQ[hArg]AK[X12]LNS[X12]RRV[β3hE]WLR[X13]KLQ[β3hD]VHN-{NH(1S,2S-2-CONH2-cPent)}; N-terminus assumed), in assay [4] (Table 10), the “Fold PTH” value is 3.8.

As to `CC[C@H](C)[C@H](NC(=O)[C@H](CCC(=O)O)NC(=O)[C@H](CO)NC(=O)[C@@H](NC(=O)[C@@H](N)CO)C(C)C)C(=O)N[C@@H](CCC(N)=O)C(=O)N[C@@H](CC(C)C)C(=O)N[C@@H](CCSC)C(=O)N[C@@H](Cc1c[nH]cn1)C(=O)N[C@@H](CC(N)=O)C(=O)N[C@@H](CC(C)C)C(=O)NCC(=O)N[C@@H](CCCCN)C(=O)N[C@H]1CCC[C@@H]1C(=O)N[C@@H](CC(C)C)C(=O)N[C@@H](CC(N)=O)C(=O)N[C@@H](CO)C(=O)N[C@H]1CCC[C@@H]1C(=O)N[C@@H](CCC(=O)O)C(=O)N[C@@H](CCCNC(=N)N)C(=O)N[C@H](C(=O)N[C@@H](CCC(=O)O)CC(=O)N[C@@H](Cc1c[nH]c2ccccc12)C(=O)N[C@@H](CC(C)C)C(=O)N[C@@H](CCCNC(=N)N)C(=O)N[C@H]1CNC[C@@H]1C(=O)N[C@@H](CCCCN)C(=O)N[C@@H](CC(C)C)C(=O)N[C@@H](CCC(N)=O)C(=O)N[C@@H](CC(=O)O)CC(=O)N[C@H](C(=O)N[C@@H](Cc1c[nH]cn1)C(=O)N[C@@H](CC(N)=O)C(=O)N[C@H]1CCC[C@@H]1C(N)=O)C(C)C)C(C)C` [cycD6, SVSEIQLMHNLGKXLNSXERVEWLRZKLQDVHNX-NH2] (H-SVSEIQLMHNLGK[X12]LNS[X12]ERV[β3hE]WLR[X13]KLQ[β3hD]VHN-{NH(1S,2S-2-CONH2-cPent)}; N-terminus assumed), the “Fold PTH” value in assay [4] (Table 9) was determined as 1.3. Further, the EC50 in assay [4] (Table 9, read-out: EC50, nM (cAMP induction potency)) came to 0.1 ± 0.01 nM.

Turning to “AVAEIQXMHQ^hRAKXLNSXRRVEWLRZKLQDVHNX-NH2 [M-cycD6]”, the “Fold PTH” value in assay [4] (Table 10) stood at 4.0.

Consider “AVAEIQXMHQ^hRAKXLNSXRRVZWLRZKLQXVHNX-NH2 [M-FcycD6]”, for which, in assay [4] (Table 10), the “Fold PTH” value is 6.3.

As to “XVSEIQXMHNLGKWLNSMERVEWLRKKLQDVHNF-NH2 [D6_ACPC(1,7)]”, in assay [4] (Table 9), the “Fold PTH” value is on record as 22.6.

Consider “XVSEXQXMHNLGKWLNSMERVEWLRKKLQDVHNF-NH2 [D6_ACPC(1,5,7)]”, for which, in assay [4] (Table 9), the “Fold PTH” value is 2,045.

Consider “XVUEXQXMHQ^hRAKWLNSMRRVEWLRKKLQDVHNF.-NH2 [M-X1,5,7-D6]”, for which, in assay [4] (Table 10), the “Fold PTH” value is listed as 9.7.
